Assay [1] relates to Escherichia coli K-12. Put plainly: Binding affinity to Escherichia coli K12 KAS 3 expressed in Escherichia coli BL21 by STD-NMR spectroscopy.
The subject of assay [2] is Escherichia coli. Put plainly: Antimicrobial activity against Escherichia coli KCTC 1682 after 20 hrs by twofold serial broth dilution method. Type of assay: functional. The settings on record: KCTC 1682, 20 h. For orientation: Dilution methods test growth across graded concentrations, often in twofold steps.
Assay [3] concerns Staphylococcus aureus. Put plainly: Antimicrobial activity against methicillin-resistant Staphylococcus aureus CCARM 3114 after 20 hrs by twofold serial broth dilution method. The settings on record: CCARM 3114, 20 h. It is filed as functional.
The test system of assay [4] is Staphylococcus aureus. Description: Antimicrobial activity against Staphylococcus aureus KCTC 1621 after 20 hrs by twofold serial broth dilution method. It is filed as functional. The settings on record: KCTC 1621, 20 h.
The subject of assay [5] is Enterococcus faecalis. Description: Antimicrobial activity against Enterococcus faecalis KCTC 2011 after 20 hrs by twofold serial broth dilution method. Type of assay: functional. The settings on record: KCTC 2011, 20 h.
For assay [6], the target named is T1, Beta-ketoacyl-[acyl-carrier-protein] synthase III (Escherichia coli K-12, UniProt P0A6R0).
T1 sequence (P0A6R0 whole entry): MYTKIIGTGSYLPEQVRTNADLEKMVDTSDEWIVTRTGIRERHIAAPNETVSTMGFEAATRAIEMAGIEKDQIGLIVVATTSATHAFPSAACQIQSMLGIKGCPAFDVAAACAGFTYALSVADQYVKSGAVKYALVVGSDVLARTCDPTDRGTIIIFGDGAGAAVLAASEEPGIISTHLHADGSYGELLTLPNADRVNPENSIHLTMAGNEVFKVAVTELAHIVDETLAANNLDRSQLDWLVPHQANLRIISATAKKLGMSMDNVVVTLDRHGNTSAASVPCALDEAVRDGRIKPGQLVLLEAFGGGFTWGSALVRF
Description: Binding affinity to Escherichia coli K12 KAS 3 expressed in Escherichia coli BL21 by fluorescence quenching analysis.

Assay [7] concerns Klebsiella pneumoniae. Description: Antimicrobial activity against Klebsiella pneumoniae KCTC 2242 after 20 hrs by twofold serial broth dilution method. It is filed as functional. The settings on record: KCTC 2242, 20 h.

Structures are written as SMILES. Converted amounts (≈) assume the structure as drawn. The source made the active and inactive calls.

On to `Cc1c(C(=O)O)cc(C(C)(C)C)n1CCSCc1c(F)cccc1Cl`, for which, in assay [1], the result was inactive.
For the compound `COc1ccc2c(c1OC)C(=O)OC2C(C)C(=O)c1ccc(O)c(O)c1` (stereo unspecified), the result in assay [1] was Active. For the same compound, the MIC in assay [2], in assay [3], in assay [4], in assay [5] and in assay [7] was more than 1020 µg/mL each time. In addition, in assay [6], the Kd was determined as 1.22 µM.
`Oc1ccc(/C=N/C2CCCCC2)c(O)c1`: the outcome in assay [1] was Active. Also, the MIC in assay [2] came to 128 µg/mL (≈ 584 µM); in assay [3] it was 128 µg/mL (≈ 584 µM); in assay [4], 256 µg/mL (≈ 1170 µM); in assay [5], 256 µg/mL (≈ 1170 µM); in assay [7], 256 µg/mL (≈ 1170 µM). The compound also had a Kd in assay [6] of 0.02 µM.
Take `Cc1cc(C)nc(NS(=O)(=O)c2ccc(NC(=O)c3sc4ccccc4c3Cl)cc2)n1`: the outcome in assay [1] was inactive.
In the case of `Cn1ncc2c(Nc3ccccc3)nc(NCCCO)nc21`, in assay [1], the outcome was Active. The compound further came in with a Kd in assay [6] of 141 µM.
The corresponding values for `O=C(O)c1cc(NC(=O)c2ccccc2[N+](=O)[O-])ccc1O` are “Active” and more than 1000 µM.
On to `C=CCSC1Nn2c(nnc(C)c2=O)S1` (stereo unspecified), for which, in assay [1], the outcome was Active. Moreover, the Kd in assay [6] was more than 1000 µM.
For the compound `C/C(=N\Nc1nc(C)cs1)c1cccc(O)c1`, in assay [1], the outcome was Active. Moreover, the minimal inhibitory concentration (MIC) in assay [2] was more than 1020 µg/mL; in assay [3], 256 µg/mL (≈ 1040 µM); in assay [4] it was 256 µg/mL (≈ 1040 µM); in assay [5], 256 µg/mL (≈ 1040 µM); in assay [7], more than 1020 µg/mL. In assay [6], this compound returned a Kd of more than 1000 µM.
Regarding `CCCc1cc(=O)oc2cc(OC(=O)c3ccccc3Cl)ccc12`, in assay [1], the result was inactive.
The same measure, in the same setting: for `CC1(O)N(CCC(N)=O)C(=O)OC12CCCCC2` (stereo unspecified) the value was “inactive”.
Same read-out and setting: the same measure for `C=CCn1c(SCC(=O)Nc2ccc(S(N)(=O)=O)cc2)nnc1-c1ccc(Cl)cc1`: “inactive”; for `NS(=O)(=O)c1cccc(NC(=O)Nc2cccc(S(N)(=O)=O)c2)c1`: “inactive”; for `COc1ccc2c(c1)CCC/C2=N/Nc1nc(C(=O)NN)cs1`: “inactive”.
As to `CC(C)(CC(=O)O)CC(=O)NCCN1CCNC1=O`, the outcome in assay [1] was Active. This compound also registered a Kd in assay [6] of more than 1000 µM.
With `C=C/C(C)=C/[C@@]1(C)SC(=O)C(C)=C1O` [THIOLACTOMYCIN], the outcome in assay [1] was Active. Moreover, the MIC came to 128 µg/mL (≈ 609 µM) in assay [2]; 128 µg/mL (≈ 609 µM) in assay [3]; 256 µg/mL (≈ 1220 µM) in assay [4]; 256 µg/mL (≈ 1220 µM) in assay [5]; 256 µg/mL (≈ 1220 µM) in assay [7]. Further, in assay [6], the affinity, expressed as Kd, was 121 µM.
Regarding `COc1ccc(NC(=O)CC(CC(=O)O)c2ccccc2)cc1` (stereo unspecified), the result in assay [1] was inactive.
Turning to `CC1CN(c2ccc(O)c(C(=O)O)c2)C(=S)NC1=O` (stereo unspecified), the result in assay [1] was Active. In assay [6], this compound registered an equilibrium dissociation constant (Kd) of more than 1000 µM.

In general, MIC refers to the smallest concentration in the dilution series that meets the test's criterion for growth inhibition. Broadly, the Kd is the equilibrium constant for the complex coming apart. A higher Kd goes with a looser complex.

Values taken from ChEMBL document CHEMBL1152734, “Novel E. coli beta-ketoacyl-acyl carrier protein synthase III inhibitors as targeted antibiotics” (Bioorg Med Chem, 2009).
